ChEMBL document CHEMBL5696442, “Discovery of type II inhibitors of TGFβ-activated kinase 1 (TAK1) and mitogen-activated protein kinase kinase kinase kinase 2 (MAP4K2)” (J Med Chem, 2015)
Active and inactive are the calls of the source. The rule behind the calls is not given here.

Assays:
[1] = target: T1, Mitogen-activated protein kinase 13 (Homo sapiens) (UniProt O15264); test: Inhibition of p38 delta Lys2 labeling site in human A-375 cells at 0.05 uM by KiNativ Profiling analysis relative to control; format: cell-based
T1 sequence (whole entry): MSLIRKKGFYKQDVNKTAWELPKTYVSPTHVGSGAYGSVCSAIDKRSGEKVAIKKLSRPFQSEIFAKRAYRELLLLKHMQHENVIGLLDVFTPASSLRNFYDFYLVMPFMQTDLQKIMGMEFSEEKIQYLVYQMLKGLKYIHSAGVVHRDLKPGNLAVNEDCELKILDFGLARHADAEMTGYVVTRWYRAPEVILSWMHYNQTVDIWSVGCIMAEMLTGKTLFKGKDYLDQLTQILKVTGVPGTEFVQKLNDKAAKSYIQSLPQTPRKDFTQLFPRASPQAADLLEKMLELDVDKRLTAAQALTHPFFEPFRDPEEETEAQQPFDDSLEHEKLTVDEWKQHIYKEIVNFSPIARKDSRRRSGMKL

[2] = target: T2, Serine/threonine-protein kinase NLK (Homo sapiens) (UniProt Q9UBE8); test: Inhibition of NLK Lys2 labeling site in human A-375 cells at 5 uM by KiNativ Profiling analysis relative to control; format: cell-based
T2 sequence (whole entry): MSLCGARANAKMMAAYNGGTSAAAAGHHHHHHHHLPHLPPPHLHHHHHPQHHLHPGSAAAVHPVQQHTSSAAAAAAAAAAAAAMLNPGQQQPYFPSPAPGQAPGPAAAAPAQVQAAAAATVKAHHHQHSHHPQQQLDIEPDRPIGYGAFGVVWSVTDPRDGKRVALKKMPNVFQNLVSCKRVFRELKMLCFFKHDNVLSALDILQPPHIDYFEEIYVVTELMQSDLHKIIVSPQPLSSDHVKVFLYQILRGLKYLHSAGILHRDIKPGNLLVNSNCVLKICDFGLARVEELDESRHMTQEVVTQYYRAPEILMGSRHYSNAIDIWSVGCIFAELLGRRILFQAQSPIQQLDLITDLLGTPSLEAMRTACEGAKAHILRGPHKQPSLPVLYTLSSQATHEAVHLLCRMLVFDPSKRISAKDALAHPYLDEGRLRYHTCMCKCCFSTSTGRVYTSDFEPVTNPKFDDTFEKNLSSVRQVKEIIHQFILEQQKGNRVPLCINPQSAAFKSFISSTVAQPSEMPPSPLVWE

[3] = target: T3, Mitogen-activated protein kinase kinase kinase 2 (Homo sapiens) (UniProt Q9Y2U5); test: Inhibition of MAP3K2 Lys1 labeling site harbouring ELAVKQVQFDPDSPETSKEVNALECEIQLLK in human A-375 cells at 5 uM by KiNativ Profiling analysis relative to control; format: cell-based
T3 sequence (whole entry): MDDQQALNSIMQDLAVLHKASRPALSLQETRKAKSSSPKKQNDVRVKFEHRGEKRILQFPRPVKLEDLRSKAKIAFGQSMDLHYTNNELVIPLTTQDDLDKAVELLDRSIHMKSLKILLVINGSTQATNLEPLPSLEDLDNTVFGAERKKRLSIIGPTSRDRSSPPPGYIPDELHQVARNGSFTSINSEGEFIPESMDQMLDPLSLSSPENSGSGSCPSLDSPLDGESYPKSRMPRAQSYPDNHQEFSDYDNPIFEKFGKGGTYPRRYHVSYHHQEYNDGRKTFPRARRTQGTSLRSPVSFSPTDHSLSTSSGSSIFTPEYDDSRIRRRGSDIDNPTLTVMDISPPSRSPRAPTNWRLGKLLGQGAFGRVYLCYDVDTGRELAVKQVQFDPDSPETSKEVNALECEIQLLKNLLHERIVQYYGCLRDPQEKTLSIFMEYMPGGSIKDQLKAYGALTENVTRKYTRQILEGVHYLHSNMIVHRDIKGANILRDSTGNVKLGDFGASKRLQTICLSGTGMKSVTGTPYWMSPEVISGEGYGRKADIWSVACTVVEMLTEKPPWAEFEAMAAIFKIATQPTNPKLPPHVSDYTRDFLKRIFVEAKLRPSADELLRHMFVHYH

[4] = target: Glycogen synthase kinase-3 alpha (Homo sapiens) (UniProt P49840); test: Inhibition of GSK3A Lys2 labeling site in human A-375 cells at 5 uM by KiNativ Profiling analysis relative to control; format: cell-based
Glycogen synthase kinase-3 alpha (Homo sapiens), sequence (P49840 2-483 limits assumed): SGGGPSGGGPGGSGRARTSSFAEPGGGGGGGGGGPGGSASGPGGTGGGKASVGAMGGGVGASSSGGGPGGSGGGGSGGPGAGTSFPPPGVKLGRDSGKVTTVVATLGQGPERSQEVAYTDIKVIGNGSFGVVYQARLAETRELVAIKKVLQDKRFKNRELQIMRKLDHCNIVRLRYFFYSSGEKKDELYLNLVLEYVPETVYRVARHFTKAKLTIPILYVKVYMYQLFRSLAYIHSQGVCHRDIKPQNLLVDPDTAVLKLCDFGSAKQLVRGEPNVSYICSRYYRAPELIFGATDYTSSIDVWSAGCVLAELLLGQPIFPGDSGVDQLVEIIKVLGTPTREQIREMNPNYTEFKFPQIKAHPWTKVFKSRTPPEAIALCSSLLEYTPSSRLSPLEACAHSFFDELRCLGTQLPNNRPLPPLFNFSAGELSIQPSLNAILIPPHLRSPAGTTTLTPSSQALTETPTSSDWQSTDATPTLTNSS

[5] = target: T1, Mitogen-activated protein kinase 13 (Homo sapiens); test: Inhibition of p38 delta Lys2 labeling site in human A-375 cells at 5 uM by KiNativ Profiling analysis relative to control; format: cell-based
[6] = target: T4, Mixed lineage kinase domain-like protein (Homo sapiens) (UniProt Q8NB16); test: Inhibition of MLKL Lys1 labeling site in human A-375 cells at 0.5 uM by KiNativ Profiling analysis relative to control; format: cell-based
T4 sequence (whole entry): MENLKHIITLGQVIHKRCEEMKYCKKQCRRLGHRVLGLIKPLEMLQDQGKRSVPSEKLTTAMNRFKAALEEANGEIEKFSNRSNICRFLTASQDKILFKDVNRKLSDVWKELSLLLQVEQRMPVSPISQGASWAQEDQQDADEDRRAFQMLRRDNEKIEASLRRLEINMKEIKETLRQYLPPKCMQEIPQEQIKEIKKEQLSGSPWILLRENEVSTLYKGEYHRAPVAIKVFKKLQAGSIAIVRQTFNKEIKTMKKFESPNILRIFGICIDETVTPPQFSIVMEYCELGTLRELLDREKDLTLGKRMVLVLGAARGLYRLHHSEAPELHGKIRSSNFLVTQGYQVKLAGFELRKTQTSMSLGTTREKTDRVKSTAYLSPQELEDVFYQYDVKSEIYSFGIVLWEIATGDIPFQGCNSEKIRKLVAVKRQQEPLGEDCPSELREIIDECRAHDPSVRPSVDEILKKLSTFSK

[7] = target: Receptor tyrosine-protein kinase erbB-3 (Homo sapiens) (UniProt P21860); test: Inhibition of HER3/ErbB3 ACT labeling site in human A-375 cells at 0.05 uM by KiNativ Profiling analysis relative to control; format: cell-based
Receptor tyrosine-protein kinase erbB-3 (Homo sapiens), sequence (P21860 whole entry): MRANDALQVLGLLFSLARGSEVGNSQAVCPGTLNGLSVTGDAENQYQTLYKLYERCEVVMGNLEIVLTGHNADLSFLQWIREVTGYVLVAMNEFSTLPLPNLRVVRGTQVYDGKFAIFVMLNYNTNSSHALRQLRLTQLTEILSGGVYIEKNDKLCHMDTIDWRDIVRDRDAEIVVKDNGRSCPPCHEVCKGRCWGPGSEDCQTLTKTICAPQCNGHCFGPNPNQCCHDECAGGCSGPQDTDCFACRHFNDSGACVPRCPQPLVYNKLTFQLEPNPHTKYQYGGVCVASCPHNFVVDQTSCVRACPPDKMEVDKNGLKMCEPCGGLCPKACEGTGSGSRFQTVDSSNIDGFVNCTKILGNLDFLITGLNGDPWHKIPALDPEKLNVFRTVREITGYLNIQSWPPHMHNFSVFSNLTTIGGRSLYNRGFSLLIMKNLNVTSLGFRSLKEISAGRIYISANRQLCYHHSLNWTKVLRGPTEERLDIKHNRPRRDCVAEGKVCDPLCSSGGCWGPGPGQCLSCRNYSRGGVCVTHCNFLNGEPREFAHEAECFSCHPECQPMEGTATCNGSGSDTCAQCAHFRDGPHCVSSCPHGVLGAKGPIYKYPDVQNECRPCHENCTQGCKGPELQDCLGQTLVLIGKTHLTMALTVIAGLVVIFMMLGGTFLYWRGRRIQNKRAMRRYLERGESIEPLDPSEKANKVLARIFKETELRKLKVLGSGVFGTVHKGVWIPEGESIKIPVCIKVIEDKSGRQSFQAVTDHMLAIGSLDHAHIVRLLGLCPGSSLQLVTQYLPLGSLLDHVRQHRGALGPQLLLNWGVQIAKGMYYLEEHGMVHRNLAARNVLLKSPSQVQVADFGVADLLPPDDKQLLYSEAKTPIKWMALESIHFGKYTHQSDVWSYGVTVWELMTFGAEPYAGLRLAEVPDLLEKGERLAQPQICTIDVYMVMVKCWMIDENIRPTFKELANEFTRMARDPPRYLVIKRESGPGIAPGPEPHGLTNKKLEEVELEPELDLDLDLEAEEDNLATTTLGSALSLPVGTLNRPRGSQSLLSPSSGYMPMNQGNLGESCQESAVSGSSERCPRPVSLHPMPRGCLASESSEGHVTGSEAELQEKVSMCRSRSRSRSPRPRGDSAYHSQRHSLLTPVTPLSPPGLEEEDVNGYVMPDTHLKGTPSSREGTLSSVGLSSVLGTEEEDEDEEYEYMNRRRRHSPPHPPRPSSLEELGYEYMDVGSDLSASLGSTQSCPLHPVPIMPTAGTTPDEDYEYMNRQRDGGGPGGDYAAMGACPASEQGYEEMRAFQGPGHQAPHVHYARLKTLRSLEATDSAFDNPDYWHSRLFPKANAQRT

[8] = target: Mitogen-activated protein kinase kinase kinase 11 (Homo sapiens) (UniProt Q16584); test: Inhibition of MLK3 Lys2 labeling site in human A-375 cells at 5 uM by KiNativ Profiling analysis relative to control; format: cell-based
Mitogen-activated protein kinase kinase kinase 11 (Homo sapiens), sequence (Q16584 whole entry, looked up): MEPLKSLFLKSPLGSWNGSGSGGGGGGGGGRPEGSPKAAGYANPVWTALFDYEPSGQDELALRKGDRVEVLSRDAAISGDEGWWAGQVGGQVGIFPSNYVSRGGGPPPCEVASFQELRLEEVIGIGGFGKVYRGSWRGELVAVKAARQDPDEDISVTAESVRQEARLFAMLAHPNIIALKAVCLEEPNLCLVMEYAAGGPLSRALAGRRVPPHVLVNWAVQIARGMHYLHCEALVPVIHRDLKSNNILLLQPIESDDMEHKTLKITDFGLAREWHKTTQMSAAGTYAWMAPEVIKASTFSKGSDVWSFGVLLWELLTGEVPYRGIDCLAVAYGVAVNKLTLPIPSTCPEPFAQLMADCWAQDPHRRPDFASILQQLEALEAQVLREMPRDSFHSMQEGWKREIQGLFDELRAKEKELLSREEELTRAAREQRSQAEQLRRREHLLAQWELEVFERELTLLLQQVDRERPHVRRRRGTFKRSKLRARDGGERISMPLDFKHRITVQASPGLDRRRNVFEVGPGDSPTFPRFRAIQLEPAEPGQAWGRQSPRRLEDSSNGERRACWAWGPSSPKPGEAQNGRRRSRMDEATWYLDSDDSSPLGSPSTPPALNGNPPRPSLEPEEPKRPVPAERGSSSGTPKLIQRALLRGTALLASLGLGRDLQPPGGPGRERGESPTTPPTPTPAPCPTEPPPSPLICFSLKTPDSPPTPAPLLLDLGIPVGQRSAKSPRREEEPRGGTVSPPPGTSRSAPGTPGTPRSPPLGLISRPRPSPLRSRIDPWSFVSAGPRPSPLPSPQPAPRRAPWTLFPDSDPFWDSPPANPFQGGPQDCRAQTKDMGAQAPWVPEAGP

[9] = target: p38 delta/gamma (Homo sapiens) (UniProt O15264+P53778); test: Inhibition of p38delta/gamma Lys2 labeling site in human A-375 cells at 0.5 uM by KiNativ Profiling analysis relative to control; format: cell-based
[10] = target: Mitogen-activated protein kinase 9 (Homo sapiens, UniProt P45984); test: Inhibition of JNK2 Lys2 labeling site in human A-375 cells at 0.05 uM by KiNativ Profiling analysis relative to control; format: cell-based
Mitogen-activated protein kinase 9, sequence (P45984 whole entry, looked up, the tested form may be a part): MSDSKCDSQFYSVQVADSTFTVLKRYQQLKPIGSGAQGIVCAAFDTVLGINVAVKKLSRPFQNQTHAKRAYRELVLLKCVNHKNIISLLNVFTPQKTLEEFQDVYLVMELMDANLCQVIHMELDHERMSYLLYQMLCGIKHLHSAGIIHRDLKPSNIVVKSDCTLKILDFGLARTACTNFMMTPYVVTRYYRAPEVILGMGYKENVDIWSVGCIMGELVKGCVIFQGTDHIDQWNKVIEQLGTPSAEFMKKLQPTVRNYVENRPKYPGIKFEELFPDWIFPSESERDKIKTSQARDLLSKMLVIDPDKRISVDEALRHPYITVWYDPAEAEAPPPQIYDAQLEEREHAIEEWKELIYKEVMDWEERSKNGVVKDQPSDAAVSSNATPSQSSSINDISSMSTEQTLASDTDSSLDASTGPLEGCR

[11] = target: Ribosomal protein S6 kinase alpha-1 (Homo sapiens) (UniProt Q15418); test: Inhibition of RSK1 domain1 Lys1 labeling site in human A-375 cells at 0.05 uM by KiNativ Profiling analysis relative to control; format: cell-based
Ribosomal protein S6 kinase alpha-1 (Homo sapiens), sequence (Q15418 whole entry, the tested form may be a part): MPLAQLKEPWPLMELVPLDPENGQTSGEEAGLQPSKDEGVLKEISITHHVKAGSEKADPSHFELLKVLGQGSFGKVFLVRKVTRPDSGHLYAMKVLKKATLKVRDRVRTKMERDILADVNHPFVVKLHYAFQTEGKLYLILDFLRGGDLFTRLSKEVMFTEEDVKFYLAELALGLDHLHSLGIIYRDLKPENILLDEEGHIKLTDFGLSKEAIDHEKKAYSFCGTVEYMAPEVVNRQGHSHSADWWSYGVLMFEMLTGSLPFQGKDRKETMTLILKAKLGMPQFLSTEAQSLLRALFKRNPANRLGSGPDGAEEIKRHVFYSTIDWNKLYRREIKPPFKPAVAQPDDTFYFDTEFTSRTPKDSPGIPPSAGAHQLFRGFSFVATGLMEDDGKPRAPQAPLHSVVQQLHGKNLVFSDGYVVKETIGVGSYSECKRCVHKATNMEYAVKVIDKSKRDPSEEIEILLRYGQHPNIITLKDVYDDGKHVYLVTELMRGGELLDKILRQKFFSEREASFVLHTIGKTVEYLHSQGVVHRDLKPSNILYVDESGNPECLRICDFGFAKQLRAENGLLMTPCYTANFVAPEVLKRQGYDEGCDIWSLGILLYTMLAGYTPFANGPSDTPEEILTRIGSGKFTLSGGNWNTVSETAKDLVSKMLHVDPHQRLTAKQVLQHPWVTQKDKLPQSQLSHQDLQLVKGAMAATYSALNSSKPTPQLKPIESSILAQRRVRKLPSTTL

[12] = test system: GEN2.2; test: Inhibition of CL097 induced IKKalpha/beta phosphorylation level in human GEN2.2 cells at 1 uM preincubated with compound for 1 hr followed by CL097 stimulation and measured after 30 mins by Western blot analysis; format: functional, cell-based

SMILES	inhibition [1] [%]	inhibition [2] [%]	inhibition [3] [%]	inhibition [4] [%]	inhibition [5] [%]	inhibition [6] [%]	inhibition [7] [%]	inhibition [8] [%]	inhibition [9] [%]	inhibition [10] [%]	inhibition [11] [%]	inhibition [12]
CCN1CCN(Cc2ccc(NC(=O)c3ccc(C)c(Oc4ccnc5[nH]ccc45)c3)cc2C(F)(F)F)CC1	64.9	18.9	44.4	33.7	> 94	7.8	4.1	9.5	86.2	50.3	-1.6	Active
CNc1cc(Oc2cc(C(=O)Nc3cc(-n4cnc(C)c4)cc(C(F)(F)F)c3)ccc2C)ncn1												inactive
CCN1CCN(Cc2ccc(NC(=O)c3ccc(C)c(/C=C/c4cnc5[nH]ccc5c4OC)c3)cc2C(F)(F)F)CC1	24.3	66.6	60.6	31.7	52.7	20.1	11.2	81.1	25.2	23.9	-0.5	
